The values below come from patent US20250257060A1, “OXADIAZOLE COMPOUND, PHARMACEUTICAL COMPOSITION COMPRISING SAME, AND USE THEREOF” (SUZHOU GENHOUSE BIO CO., LTD., priority 2022, published 2025).

Structures are written as SMILES.

Data set [1] is described as follows: Phase I metabolic stability in human liver microsomes (HLMs). Format: in vitro ADME, humans. The note with it: HLM; for Remaining rate (NCF = 60 min): buffer instead of NADPH regeneration system; for Remaining rate (T = 60 min): with NADPH; for CLint scaled at 1 µM / half-life at 1 M / microsomal CLint at 1 M: human, liver microsomes, pH 7.4; for microsomal CLint at 1 M: read-out: CLint (mic). On the procedure: (§1) Phase I metabolic stability of the test compounds in liver microsomes of CD-1 mice (MLMs), Sprague-Dawley rats (RLMs), beagle dogs (DLMs), cynomolgus monkeys (CLMs), and humans (HLMs) was evaluated.
(§2) The animal and human liver microsomes used in the test system were purchased from Xenotech, Corning, or other qualified suppliers and stored in a freezer at a temperature below −60° C. prior to use.
(§3) The test samples and control compounds were separately incubated with animal and human liver microsomes at 37±1° C. for a period of incubation time up to 60 min. The samples were removed at the indicated time points, and the reaction was stopped with acetonitrile or other organic solvents containing an internal standard. After centrifugation, the resulting supernatants were assayed by liquid chromatography-tandem mass spectrometry (LC-MS/MS).
(§4) 73.21 g of dipotassium hydrogenphosphate trihydrate and 10.78 g of potassium dihydrogenphosphate were dissolved in 4000 mL of ultrapure water. The solution was adjusted to pH 7.40±0.10 with 10% phosphoric acid or 1 M potassium hydroxide to make a final concentration of 100 mM.
(§5) The test sample powder was prepared into a stock solution at a certain concentration with DMSO or other organic solvents, which was then further diluted with a proper organic solvent.
(§6) Microsomes of each species were diluted into a 2× working solution with a 100 mM potassium phosphate buffer. The final concentration of the microsomes in the reaction system was 0.5 mg/mL.
(§7) An appropriate amount of nicotinamide adenine dinucleotide phosphate (NADP) and isocitric acid (ISO) powder was weighed out, dissolved in a magnesium chloride solution, and shaken and mixed well. An appropriate amount of isocitrate dehydrogenase (IDH) was added, and the mixture was mixed well by gently turning upside down. The final concentrations in the reaction system were: 1 mM NADP, 1 mM magnesium chloride, 6 mM ISO, and 1 unit/mL IDH.
(§8) Incubation was performed in a 96-well plate. Eight incubation plates were prepared and designated T0, T5, T15, T30, T45, T60, Blank60, and NCF60, respectively. The first 6 plates corresponded to reaction time points of 0, 5, 15, 30, 45, and 60 min, respectively. No test sample or control compound was added to the Blank60 plate, and samples were taken after 60 min of incubation. In the NCF60 plate, incubation was performed for 60 min using the potassium phosphate buffer instead of the NADPH regeneration system solution. Three replicates were made for samples in all conditions.
(§9) The microsomes and the test sample or control compound were mixed, and then the incubation plates Blank60, T5, T15, T30, T45, and T60 except for TO and NCF60 were placed in a 37° C. water bath for pre-incubation for about 10 min. In the incubation plate TO, a stop solution was first added, followed by addition of the NADPH regeneration system working solution, and 98 μL of the potassium phosphate buffer was added to each sample well of the incubation plate NCF60 to initiate the reaction. After the pre-incubations of the incubation plates Blank60, T5, T15, T30, T45, and T60 were completed, 98 μL of the NADPH regeneration system working solution was added to each sample well to initiate the reaction. The reaction temperature was 37±1° C., the final volume of the reaction was 200 μL, and the reaction system included 0.5 mg/mL microsomes, […], 1 mM NADP, 6 mM ISO, and 1 unit/mL IDH.
(§10) At 5 min, 15 min, 30 min, 45 min, and 60 min, a cold stop solution containing an internal standard was added to the reaction plate to stop the reaction.
(§11) All the reaction plates after the reaction was stopped were shaken well and centrifuged at 3220×g at 4° C. for 20 min. After the supernatant was diluted according to a certain proportion, LC-MS/MS analysis was performed.
(§12) Sample analysis was performed by the liquid chromatography-tandem mass spectrometry (LC-MS/MS) method without standard curves and quality control samples. […]

Data set [2] is described as follows: Phase I metabolic stability in mouse liver microsomes (MLMs). Format: in vitro ADME, CD-1 mice. The following applies: MLM; for CLint scaled at 1 µM / half-life at 1 M / microsomal CLint at 1 M: CD-1, mouse, liver microsomes, pH 7.4; for microsomal CLint at 1 M: read-out: CLint (mic); for Remaining rate (NCF = 60 min): buffer instead of NADPH regeneration system; for Remaining rate (T = 60 min): with NADPH. The method, then:
as §1, §2, §3, §4, §5, §6, §7, §8, §9, §10, §11, §12

In data set [3] the test system is acetylation level of α-tubulin in HCT116 cells. The data set can be described thus: Assay on acetylation level of α-tubulin, HCT116 cells. The format is cell-based. The note with it: Homo sapiens, HCT-116, 6 h. The method, then: A375/HCT116/HCC827 cells at a logarithmic growth phase were taken, digested with a […] (trypsin), centrifuged, counted, and plated in a 96-well plate at an appropriate cell density (30,000 cells/well) at 100 µL/well, and an appropriate amount of PBS was added around the plate for water sealing. The next day, the cells were treated with the compounds at different concentrations (starting at 100 μM, 5-fold dilution, 9 concentration gradients). After 6 h, the medium was pipetted out and the cells were washed twice with 100 μL of PBST. The cells were then immobilized in 4% paraformaldehyde, and the plate was incubated at room temperature for 20 min. The stationary liquid was discarded and the cells were washed with PBST. 150 μL of special blocking buffer (containing 1% Triton-100) was added to each well for blocking at room temperature for 2 h, and the plate was washed with PBS to remove excess blocking buffer. α-tubulin (DM1A) mouse mAb and acetyl-α-tubulin (Lys40) (D20G3) XP rabbit mAb were diluted at a 1:2000 ratio with a blocking buffer containing 0.033% Triton-100. The dilutions were added to the 96-well plate and the plate was incubated overnight at 4° C. Meanwhile, a blank control group was set. The next day, the plate was washed twice with PBST. Secondary anti-mouse IgG (H+L) (DyLight™ 680 conjugate) and anti-rabbit IgG (H+L) (DyLight™ 800 conjugate) were diluted at a 1:2000 ratio with a blocking buffer containing 0.033% Triton-100. The dilutions were added to a 96-well plate and the plate was incubated at room temperature for 2 h. The plate was washed twice with PBST and once with PBS. Fluorescence signals at 700 nm and 800 nm were detected with a Li-COR Odyssey two-color near-infrared laser imager.

A short description of data set [4]: Phase I metabolic stability in rat liver microsomes (RLMs). The format is in vitro ADME, Sprague-Dawley rats. The following applies: RLM; for Remaining rate (NCF = 60 min): buffer instead of NADPH regeneration system; for Remaining rate (T = 60 min): with NADPH; for CLint scaled at 1 µM / half-life at 1 M / microsomal CLint at 1 µM: Sprague-Dawley, rat, liver microsomes, pH 7.4; for microsomal CLint at 1 µM: read-out: CLint (mic). On the procedure:
as §1, §2, §3, §4, §5, §6, §7, §8, §9, §10, §11, §12

Turning to `CC(F)(F)C(=O)N[C@@H]1CCCC[C@H]1N1Cc2ccc(-c3nnc(C(F)F)o3)cc2S1(=O)=O` [Compound 1], in data set [1], the “Remaining rate (NCF = 60 min)” value is given as 83.4%, the “Remaining rate (T = 60 min)” value is listed as 79.0%, the CLint scaled at 1 µM was less than 8.6 mL/min/kg and the half-life at 1 M was greater than 2.42 h. Further, the microsomal CLint at 1 M in data set [1] is less than 9.6 µL/min/mg. In data set [2], the CLint scaled at 1 µM is less than 38 mL/min/kg, the half-life at 1 M is greater than 2.42 h, the microsomal CLint at 1 M was less than 9.6 µL/min/mg and the “Remaining rate (NCF = 60 min)” value is given as 97.6%. For the same compound, in data set [2], the “Remaining rate (T = 60 min)” value is given as 79.8%. Besides, the response in data set [3] was half-maximal at 0.262 µM (EC50). In data set [4], the “Remaining rate (NCF = 60 min)” value came out at 100.2%, the “Remaining rate (T = 60 min)” value is given as 68.9%, the CLint scaled at 1 µM came to 25.8 mL/min/kg and the half-life at 1 M worked out at 1.61 h. In addition, in data set [4], the microsomal CLint at 1 µM turned out to be 14.4 µL/min/mg.
Regarding `O=C(N[C@@H]1CCCC[C@H]1N1Cc2ccc(-c3nnc(C(F)F)o3)cc2S1(=O)=O)C(F)F` [Compound 2], in data set [1], the “Remaining rate (NCF = 60 min)” value worked out at 97.3%, the “Remaining rate (T = 60 min)” value was determined as 86.1%, the CLint scaled at 1 µM was less than 8.6 mL/min/kg and the half-life at 1 M is greater than 2.42 h. Besides, in data set [1], the microsomal CLint at 1 M is less than 9.6 µL/min/mg. For the same compound, in data set [2], the CLint scaled at 1 µM is less than 38 mL/min/kg, the half-life at 1 M is greater than 2.42 h, the microsomal CLint at 1 M was less than 9.6 µL/min/mg and the “Remaining rate (NCF = 60 min)” value is given as 99.8%. Besides, in data set [2], the “Remaining rate (T = 60 min)” value was 84.8%. Besides, the EC50 in data set [3] stood at 0.14 ± 0.0391 µM. In data set [4], the “Remaining rate (NCF = 60 min)” value is listed as 93.0%, the “Remaining rate (T = 60 min)” value is on record as 76.4%, the CLint scaled at 1 µM is less than 17.3 mL/min/kg and the half-life at 1 M was greater than 2.42 h. Besides, the microsomal CLint at 1 µM in data set [4] is less than 9.6 µL/min/mg.
As to `O=C(N[C@H]1[C@H](N2Cc3ccc(-c4nnc(C(F)F)o4)cc3S2(=O)=O)CCCC1(F)F)C(F)F` [Compound 61], in data set [1], the “Remaining rate (NCF = 60 min)” value was determined as 86.25%, the “Remaining rate (T = 60 min)” value came out at 85.62%, the CLint scaled at 1 µM worked out at 7.26 mL/min/kg and the half-life at 1 M came out at 3.99 h. In addition, in data set [2], the CLint scaled at 1 µM is 18.6 mL/min/kg, the half-life at 1 M came to 4.9 h, the “Remaining rate (NCF = 60 min)” value came to 83.81% and the “Remaining rate (T = 60 min)” value is reported as 85.14%. The same compound yielded an EC50 in data set [3] of 0.195 µM. For the same compound, in data set [4], the “Remaining rate (NCF = 60 min)” value was 88.24%, the “Remaining rate (T = 60 min)” value was determined as 72.95%, the CLint scaled at 1 µM turned out to be 19.4 mL/min/kg and the half-life at 1 M stood at 2.14 h.
